Where two headings read alike, the source gives them in different places.
Assay: Plasma pharmacokinetics of SHR9146 in mice (LC-MS/MS, non-compartmental analysis)
Format: in vivo, ICR mice
Details: both sexes, ICR, mouse, plasma; for bioavailability: mice
Method: ICR mice with body weight 16–26 g were supplied by Shanghai Lingchang Biotechnology Co., Ltd. (animal breeding license number SCXK (Shanghai) 2013-0018) and housed at Shanghai Institute of Materia Medica, Chinese Academy of Sciences [animal use license number SYXK (Shanghai) 2015-0027]. The mice used in this study were fasted overnight for 12 h but had free access to water. Food was supplied 4 h post-dose. All experiments in this study were conducted in accordance with the Guidelines for the Care and Use of Laboratory Animals of Shanghai Institute of Materia Medica, Chinese Academy of Sciences.
A total of 30 mice were randomly assigned into five groups with equal numbers, males and females. One group was intravenously administrated with 5 mg/kg SHR9146 dissolved in […] plus 95% saline (adjusted pH to 4.0) under sterile conditions. The remaining four groups were administered respectively with a single dose of 20 , 40, or 80 mg/kg or multiple doses of 20 mg/kg twice daily for 7 days, by oral gavage of SHR9146 dissolved in 0.5% CMC-Na. Blood samples were obtained from the fossa orbitalis vein at 15 and 30 min and 1.0, 2.0, 4.0, 6.0, 8.0, 10.0, and 24.0 h after oral gavage administration. An additional 5-min time point was included for iv injection, as well as the pre-drug administration time points on the fifth, sixth, and seventh days in the multiple-dose group. The blood samples were collected in EDTA K2 anticoagulant blood collection tubes and centrifuged at 1,000 rpm for 5 min at 4°C. The supernatant plasma samples were thus produced.
Briefly as follows, an aliquot of 25-μL plasma or tissue homogenate was spiked with 100 μL of internal standard solution (1 μg/mL for plasma, 0.2 μg/mL for tissue homogenate) and 300 μL of methanol added and vortex mixed for 60 s. The mixture was then centrifuged at 14,000 rpm at 4°C for 5.0 min, and the supernatant was diluted with methanol–water (4:1, v/v) in a ratio of 1:9 for the plasma or 1:1 for the tissue homogenate, and 5 μL of the resulting solution was injected for the LC-MS/MS analysis.
The pharmacokinetic parameters of SHR9146 in mouse plasma were estimated by Phoenix 1.4 software using a non-compartmental model.
The mean concentration–time curves of SHR9146 in mouse plasma after a single oral gavage dose of 20, 40, or 80 mg/kg, or a single intravenous dose of 5 mg/kg, or the 7th-day steady state after twice-daily multiple oral doses of 20 mg/kg are shown in Figure 5 (Table S6).

[1] = oral, 40 mg/kg, 40 mg/kg i.g. single, read-out: plasma drug concentration, mean (n=6)
[2] = oral, 40 mg/kg, 40 mg/kg i.g. single, read-out: plasma drug concentration, individual mice #1-#6
[3] = oral, 80 mg/kg, 80 mg/kg i.g. single, read-out: plasma drug concentration, individual mice #1-#6
[4] = oral, 80 mg/kg, 80 mg/kg i.g. single, read-out: plasma drug concentration, mean (n=6)
[5] = po, 20 mg/kg, 20 mg/kg i.g. bid, 7 days (7th-day steady state), all mice (Totol, 3 male + 3 female)

concentration at 1 h [1]: 9980 ng/mL
concentration at 2 h [1]: 4920 ng/mL
concentration at 3 h [1]: 1130 ng/mL
concentration at 4 h [1]: 4350 ng/mL
concentration at 6 h [1]: 1010 ng/mL
concentration at 8 h [2]: 582 ng/mL
concentration at 10 h [2]: 293 ng/mL
concentration at 24 h [2]: 136 ng/mL
concentration at 0.25 h (oral, 80 mg/kg, 80 mg/kg i.g. single, 0.25 h, read-out: plasma drug concentration, mean (n=6)): 6130 ng/mL
concentration at 0.5 h [3]: 9320 ng/mL
concentration at 0.5 h [4]: 11300 ng/mL
concentration at 1 h [4]: 12900 ng/mL
concentration at 2 h [4]: 8930 ng/mL
concentration at 3 h [4]: 4670 ng/mL
concentration at 4 h [4]: 8950 ng/mL
concentration at 6 h [4]: 2260 ng/mL
concentration at 8 h [4]: 1200 ng/mL
concentration at 10 h [4]: 1700 ng/mL
concentration at 24 h [3]: 96 ng/mL
AUC(0-inf) [5]: 24400 ng·h/mL
Cmax at 7 days [5]: 10700 ± 811 ng/mL
half-life at 7 days [5]: 1.01 h
AUC(0-t) (po, 20 mg/kg, 20 mg/kg i.g. bid, 7 days (7th-day steady state), all mice (Totol, 3 male + 3 female), read-out: AUC0-t): 24200 ng·h/mL
Tmax (po, 20 mg/kg, 20 mg/kg i.g. bid, 7 days (7th-day steady state), all mice (Totol, 3 male + 3 female), read-out: Tmax): 0.833 ± 0.258 h
bioavailability (po, 20 mg/kg, 20 mg/kg i.g. single dose vs 5 mg/kg i.v., one value for the dose, read-out: F (absolute bioavailability)): 57.7%
AUC(0-inf) (po, 20 mg/kg, 20 mg/kg i.g. single dose, all mice (Totol, 3 male + 3 female)): 16300 ng·h/mL
AUC(0-t) (po, 20 mg/kg, 20 mg/kg i.g. single dose, all mice (Totol, 3 male + 3 female), read-out: AUC0-t): 15600 ng·h/mL
Cmax (po, 20 mg/kg, 20 mg/kg i.g. single dose, all mice (Totol, 3 male + 3 female), read-out: Cmax): 9610 ± 3110 ng/mL
Tmax (po, 20 mg/kg, 20 mg/kg i.g. single dose, all mice (Totol, 3 male + 3 female), read-out: Tmax): 0.458 ± 0.292 h
half-life (po, 20 mg/kg, 20 mg/kg i.g. single dose, all mice (Totol, 3 male + 3 female), read-out: t1/2 (converted)): 0.699 h
bioavailability (po, 40 mg/kg, 40 mg/kg i.g. single dose vs 5 mg/kg i.v., one value for the dose, read-out: F (absolute bioavailability)): 40.2%
AUC(0-t) (po, 40 mg/kg, 40 mg/kg i.g. single dose, all mice (Totol, 3 male + 3 female), read-out: AUC0-t): 21700 ng·h/mL
Cmax (po, 40 mg/kg, 40 mg/kg i.g. single dose, all mice (Totol, 3 male + 3 female), read-out: Cmax): 12400 ± 4120 ng/mL
Tmax (po, 40 mg/kg, 40 mg/kg i.g. single dose, all mice (Totol, 3 male + 3 female), read-out: Tmax): 1.58 ± 1.28 h
bioavailability (po, 80 mg/kg, 80 mg/kg i.g. single dose vs 5 mg/kg i.v., one value for the dose, read-out: F (absolute bioavailability)): 64.7%
AUC(0-inf) (po, 80 mg/kg, 80 mg/kg i.g. single dose, all mice (Totol, 3 male + 3 female)): 70900 ng·h/mL
AUC(0-t) (po, 80 mg/kg, 80 mg/kg i.g. single dose, all mice (Totol, 3 male + 3 female), read-out: AUC0-t): 70000 ng·h/mL
Cmax (po, 80 mg/kg, 80 mg/kg i.g. single dose, all mice (Totol, 3 male + 3 female), read-out: Cmax): 17100 ± 6290 ng/mL
Tmax (po, 80 mg/kg, 80 mg/kg i.g. single dose, all mice (Totol, 3 male + 3 female), read-out: Tmax): 1.5 ± 1.34 h
half-life (po, 80 mg/kg, 80 mg/kg i.g. single dose, all mice (Totol, 3 male + 3 female), read-out: t1/2 (converted)): 2.4 h
bioavailability (po, 80 mg/kg, single oral doses 20, 40, 80 mg/kg, read-out: absolute (oral) bioavailability, mean over single oral doses): 54.2%
bioavailability (po, 80 mg/kg, single oral doses 20, 40, 80 mg/kg, read-out: absolute (oral) bioavailability, range over single oral doses): 40.2 to 64.7%
AUC(0-t) (po, after oral dosing from 20 to 80 mg/kg, mouse plasma, read-out: AUC0-t, range over oral doses): 15600 to 70000 ng·h/mL
Cmax (po, after oral dosing from 20 to 80 mg/kg, mouse plasma, read-out: Cmax, range over oral doses): 8750 to 12900 ng/mL
Tmax (po, after oral gavage, mouse plasma, read-out: mean Tmax, range over oral doses): 0.458 to 1.58 h
Tmax (po, oral 20 to 80 mg/kg pooled, mouse plasma, n=6, read-out: Tmax, post-oral): 0.79 ± 0.36 h
half-life (po, oral 20 to 80 mg/kg pooled, mouse plasma, n=6, read-out: t1/2, post-oral (converted)): 1.59 ± 0.853 h
MRT inf (po, 20 mg/kg i.g. single dose, all mice (Totol, 3 male + 3 female), read-out: MRT0-∞): 1.64 h
SMILES: OCCn1cc(-c2ccc(N3CCC([C@H]4c5c(F)cccc5-c5cncn54)CC3)cc2)cn1 [SHR9146]
